Laboratory results taken from patent publication US11230535B2, “CFTR regulators and methods of use thereof” (THE REGENTS OF THE UNIVERSITY OF CALIFORNIA, priority 2015, dated 2022).
“Also recorded” adds a separate entry of the source.

Tests used:
cytoplasmic calcium = test: Cytoplasmic calcium by Fluo-4 fluorescence in FRT cells; format: cell-based, rat; conditions: 10 μM; for inhibition of the ATP-stimulated elevation in cytoplasmic calcium: 100 μM ATP
Method: cAMP and Ca^2+ assays. FRT cells expressing wildtype CFTR were cultured in 12-well plates. After washing with PBS, cells were incubated for 10 min with compounds in the absence or presence of 90 nM forskolin and then lysed. Lysates were assayed for cAMP content using a cAMP immunoassay kit (Parameter cAMP Immunoassay Kit, R&D Systems, Minneapolis, Minn.). For cytoplasmic calcium measurements, FRT cells in 96-well black-walled microplates were loaded with Fluo-4 NW (Invitrogen, Carlsbad, Calif.) and Fluo-4 fluorescence was measured with a plate reader equipped with syringe pumps and monochromators.

CaCC in HT-29 cells = test: Non-TMEM16A CaCC plate reader assay in HT-29 cells expressing YFP; format: cell-based; conditions: 10 μM
Method: (§1) Platereader assays of chloride channel function. CFTR activity was assayed as described. FRT cells co-expressing YFP and wildtype CFTR were washed with phosphate-buffered saline (PBS) and then incubated for 10 min with test compounds in PBS containing 125 nM forskolin. I^− influx was measured in a plate reader with initial baseline read for 2 s and then for 12 s after rapid addition of an I^−-containing solution. TMEM16A activity was assayed similarly as described using FRT cells co-expressing YFP and TMEM16A. Activity of non-TMEM16A CaCC was assayed as described in HT-29 cells expressing YFP. In each assay initial rates of I^− influx were computed as a linear measure of channel function.

FRT cells = test: Cytotoxicity by Alamar Blue assay in FRT cells; format: cell-based, rat; conditions: for cytotoxicity of 6k / 12: 10 μM, 8 h; for cytotoxicity at up to 100 μM: 1 or 24 h
rat liver microsomes = test: In vitro metabolic stability in rat liver microsomes; format: in vitro ADME; conditions: NADPH
Method: In vitro metabolic stability. Compounds (each 5 μM) were incubated for specified times at 37° C. with rat liver microsomes (1 mg/ml; Sigma-Aldrich) in potassium phosphate buffer containing 1 mM NADPH, as described^14.

TMEM16A = biological target: T1, TMEM16A (Homo sapiens, UniProt Q5XXA6); test: TMEM16A plate reader assay in FRT cells expressing YFP and TMEM16A; format: cell-based; conditions: 10 μM
T1 construct: expressed in transfected cells; host or cells: Fischer rat thyroid (FRT) cells stably co-expressing YFP-H148Q
T1 sequence (Q5XXA6 1-986): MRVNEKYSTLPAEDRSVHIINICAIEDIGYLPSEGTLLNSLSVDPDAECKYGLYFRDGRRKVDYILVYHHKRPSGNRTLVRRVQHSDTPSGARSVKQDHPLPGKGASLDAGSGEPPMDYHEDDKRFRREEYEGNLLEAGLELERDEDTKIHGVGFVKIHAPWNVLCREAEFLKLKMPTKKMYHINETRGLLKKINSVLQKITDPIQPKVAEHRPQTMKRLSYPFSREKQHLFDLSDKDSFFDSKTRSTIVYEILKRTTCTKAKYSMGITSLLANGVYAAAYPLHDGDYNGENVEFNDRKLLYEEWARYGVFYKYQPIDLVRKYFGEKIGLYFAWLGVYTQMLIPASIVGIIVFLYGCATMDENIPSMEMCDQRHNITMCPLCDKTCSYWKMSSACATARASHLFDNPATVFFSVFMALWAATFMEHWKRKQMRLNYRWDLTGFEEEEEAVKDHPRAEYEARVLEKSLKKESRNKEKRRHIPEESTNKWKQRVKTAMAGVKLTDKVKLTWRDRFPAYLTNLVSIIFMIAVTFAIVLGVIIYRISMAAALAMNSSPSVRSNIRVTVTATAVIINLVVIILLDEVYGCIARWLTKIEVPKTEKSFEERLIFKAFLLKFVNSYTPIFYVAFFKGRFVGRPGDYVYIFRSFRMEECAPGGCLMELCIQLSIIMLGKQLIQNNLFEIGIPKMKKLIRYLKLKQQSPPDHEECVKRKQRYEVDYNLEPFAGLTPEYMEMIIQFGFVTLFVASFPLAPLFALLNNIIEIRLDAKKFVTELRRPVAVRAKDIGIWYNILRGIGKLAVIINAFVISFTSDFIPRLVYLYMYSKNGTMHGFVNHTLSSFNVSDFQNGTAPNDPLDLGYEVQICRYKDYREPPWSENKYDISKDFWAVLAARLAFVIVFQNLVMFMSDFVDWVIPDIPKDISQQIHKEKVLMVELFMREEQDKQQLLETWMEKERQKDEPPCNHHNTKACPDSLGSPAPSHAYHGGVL
Method: as §1

mice = test: Tear secretion / tear volume in mice (phenol red thread); format: in vivo, mouse; conditions: for duration of increased tear secretion / increase in tear fluid secretion / tear secretion, in words: single topical dose, wild-type mice; for tear secretion / tear volume in CF mice: CF mice lacking functional CFTR
Method: (§2) To measure unstimulated tear production, phenol red threads (Zone-Quick, Oasis Medical, Glendora, Calif., USA) were placed for 10 s in the lateral canthi of isofluorane-anesthetized mice using jewelers' forceps. Tear volume was measured as the length of thread wetting, as visualized under a dissecting microscope. Serial measurements were used to evaluate compound pharmacodynamics after application of 2-μL drops of compound formulations (50-100 μM compound in PBS containing 0.5% polysorbate and 0.5% DMSO) comparing to vehicle.
as §2, with “Tear secretion. To” for “To”, “2-[…]L” for “2-μL”
Tear volume. Tear volume was measured using phenol red threads (Zone-Quick, Oasis Medical, Glendora, Calif.) as described. Threads were placed for 10 s in the lateral canthi of isofluorane-anesthetized mice using jewelers' forceps. Tear volume was determined from the length of thread wetting as visualized under a dissecting microscope. Serial measurements were done to evaluate compound pharmacodynamics after topical application of a single, 2.5-μL drop of ophthalmic formulation containing 0-100 μM of 1 or 12 in Ringer's solution with 0.3% carboxymethylcellulose (high viscosity, VWR, Radnor, Pa.), 0.015% benzalkonium chloride preservative, and 1% DMSO. Both eyes in each mouse received the same treatment to control for potential contralateral effects of a given treatment.

| SMILES | increase of cytoplasmic calcium (cytoplasmic calcium) | inhibition of the ATP-stimulated elevation in cytoplasmic calcium (cytoplasmic calcium) | effect on calcium-activated chloride channels in HT-29 cells (CaCC in HT-29 cells) | cytotoxicity of 6k / 12 (FRT cells) | metabolic stability in hepatic microsomes, in words (rat liver microsomes) | effect on calcium-activated chloride channels in TMEM16A-expressing FRT cells (TMEM16A) | duration of increased tear secretion (mice) | increase in tear fluid secretion (mice) | cytotoxicity at up to 100 μM (FRT cells) | tear secretion / tear volume in CF mice (mice) | tear secretion, in words (mice) | also measured |
| --- | --- | --- | --- | --- | --- | --- | --- | --- | --- | --- | --- | --- |
| CCN(CC)c1nc(Nc2ccc3ncsc3c2)nc(OC(C(F)(F)F)C(F)(F)F)n1 [6k, N′-(1,3-Benzothiazol-6-yl)-N,N-diethyl-6-[(1,1,1,3,3,3-hexafluoropropan-2-yl)oxy]-1,3,5-triazine-2,4-diamine] | did not | did not | no activation; also recorded: neither inhibited nor activated | did not produce significant toxicity | metabolized slowly; also recorded: substantially greater in vitro metabolic stability than 1 or 12 | no inhibition; also recorded: neither inhibited nor activated | – | – | – | – | – | original compound remaining at 60 min (rat liver microsomes; 5 μM, rat hepatic microsomes): ~60% |
| Nc1ccc([N+](=O)[O-])cc1-c1nc2ccccc2n(Cc2ccccc2)c1=O [CFTRact-J027, 3-(2-amino-5-nitrophenyl)-1-benzylquinoxalin-2(1H)-one] | – | – | – | – | – | – | at least four | approximately two-fold | no appreciable in vitro cytotoxicity | – | – | cytotoxicity at 20 μM (FRT cells; 20 μM): did not show cytotoxicity; cytotoxicity at 25 μM (FRT cells; 25 μM): did not show significant in vitro cytotoxicity; non-cytotoxic concentration relative to EC50 for CFTR activation (FRT cells; 25 μM): > 100 fold |
| CCN(CC)c1nc(Nc2ccccc2)nc(OC(C(F)(F)F)C(F)(F)F)n1 [CFTRact-K089, N,N-Diethyl-6-[(1,1,1,3,3,3-hexafluoropropan-2-yl)oxy]-N′-phenyl-1,3,5-triazine-2,4-diamine] | – | – | – | – | metabolized rapidly | – | four and at least four | approximately two-fold | no appreciable in vitro cytotoxicity | no effect | doubled basal tear secretion | – |
| CC(C)(C)c1cc(C(C)(C)C)c(NC(=O)c2c[nH]c3ccccc3c2=O)cc1O [VX-770, reference compound] | – | – | – | – | – | – | – | – | – | – | little tear secretion | – |
| CNc1nc(Nc2ccccc2)nc(OCC(F)(F)C(F)F)n1 [compound 12, N-methyl-N′-phenyl-6-(2,2,3,3-tetrafluoropropoxy)-1,3,5-triazine-2,4-diamine] | without causing cAMP or calcium elevation; also recorded: did not | did not | no activation; also recorded: neither inhibited nor activated | non-toxic; also recorded: did not produce significant toxicity | rapidly metabolized by hepatic microsomes | no inhibition; also recorded: neither inhibited nor activated | – | – | – | without effect; also recorded: did not increase tear volume | – | duration of sustained effect on tear volume (mice; 25 pmol, single dose): 8 h; duration of sustained increase in tear volume (mice; 100 μM (250 pmol), single dose): 8 h; time of return of tear volume to baseline (mice; 100 μM (250 pmol), single dose): 12 to 24 h; time of maximal tear volume (mice; doses down to 25 pmol): 1 to 3 h; duration of sustained in vivo efficacy (mice; mice): at least 8 hours; lowest dose with similar activity on tear volume (mice; single-dose dose-response): 25 pmol |
